Laboratory results reported in PMC6155811, “Effect of Phenolic Compounds from Elderflowers on Glucose- and Fatty Acid Uptake in Human Myotubes and HepG2-Cells” (Molecules : A Journal of Synthetic Chemistry and Natural …, 2017).
Where two headings read alike, the source gives them in different places.

Assays:
DPPH radical scavenging = settings: phenolic compounds and metabolites; IC50 ± SD
Experimental: Scavenging activity towards the DPPH radical was carried out as previously described. Test substances were dissolved in DMSO or water. Values were corrected for absorbance of the test substances.

[1] = target: T1, 15-lipoxygenase (15-LO) from soybeans (Glycine max, UniProt P08170); test: Inhibition of 15-lipoxygenase; type: biochemical, soybean; settings: IC50 ± SD
T1 construct: 15-lipoxygenase (15-LO) from soybeans; purchased Sigma-Aldrich (St. Louis, MO, USA); host or cells: soybeans
T1 sequence (P08170 1-839): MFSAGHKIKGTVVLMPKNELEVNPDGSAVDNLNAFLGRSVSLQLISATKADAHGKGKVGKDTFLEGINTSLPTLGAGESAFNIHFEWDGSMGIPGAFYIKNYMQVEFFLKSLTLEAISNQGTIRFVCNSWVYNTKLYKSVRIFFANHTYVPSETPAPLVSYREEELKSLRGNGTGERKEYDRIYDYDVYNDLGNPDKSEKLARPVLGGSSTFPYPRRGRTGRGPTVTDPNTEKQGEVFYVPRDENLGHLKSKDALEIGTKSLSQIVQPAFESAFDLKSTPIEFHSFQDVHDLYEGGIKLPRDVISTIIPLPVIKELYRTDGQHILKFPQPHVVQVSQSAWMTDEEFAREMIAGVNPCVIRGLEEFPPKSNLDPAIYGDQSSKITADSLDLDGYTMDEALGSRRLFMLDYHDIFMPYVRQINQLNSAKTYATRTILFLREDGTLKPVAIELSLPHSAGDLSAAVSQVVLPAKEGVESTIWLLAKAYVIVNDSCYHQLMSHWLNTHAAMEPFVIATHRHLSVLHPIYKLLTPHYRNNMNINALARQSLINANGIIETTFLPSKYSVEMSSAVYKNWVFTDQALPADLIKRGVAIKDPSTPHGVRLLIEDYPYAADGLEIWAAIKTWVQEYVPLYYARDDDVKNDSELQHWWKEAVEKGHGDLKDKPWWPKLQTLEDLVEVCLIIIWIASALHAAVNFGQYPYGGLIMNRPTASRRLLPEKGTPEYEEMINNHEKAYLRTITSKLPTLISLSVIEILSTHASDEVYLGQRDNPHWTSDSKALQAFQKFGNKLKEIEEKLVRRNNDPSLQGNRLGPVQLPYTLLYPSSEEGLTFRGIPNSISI
Experimental: Test substances were dissolved in DMSO or water, and the assay was carried out as previously described.

[2] = target: T2, Baker's yeast α-glucosidase (Saccharomyces cerevisiae, UniProt P53341); test: biochemical; settings: IC50 ± SD
T2 construct: purchased Sigma-Aldrich Chemie GmbH (Steinheim, Germany)
Experimental: The α-glucosidase inhibitory activity of the extracts was assessed according to the method described by Ranilla, et al.. Baker’s yeast α-glucosidase (EC 3.2.1.20) was purchased from Sigma-Aldrich Chemie GmbH (Steinheim, Germany).

[3] = tested on: human skeletal muscle cells; test: Glucose uptake in human myotubes ([14C(U)]-glucose); type: cell-based; settings: for increase in glucose uptake: 10 µM, 2 days, vs 0.1% DMSO control, mean ± SEM
Experimental: Figure 2 Effects of elderflower extracts, constituents and metabolites on glucose uptake in human myotubes. Myotubes were treated with (A) 12.5, 25 and 50 µg/mL of different crude extracts; (B,C) 0.1, 1 and 10 µM of elderflower phenolic compounds and metabolites for 2 days. Thereafter, the cells were exposed to [^14C(U)]-glucose (1 μCi/mL, 100 μM) for 4 h as described in the Materials and Methods section. 22-S-hydroxycholesterol (22-SHC) (10 μM) was used as positive control. The figures show [^14C(U)]-glucose uptake given as means ± standard error of the mean (SEM) (n = 3) from separate experiments. * p < 0.05 vs. control (0.1% dimethyl sulfoxide (DMSO)).
(§1) Satellite cells were isolated from the Musculus obliquus internus abdominis of four healthy donors, age 34.8 (±19) years, body mass index 22.9 (±2.7) kg/m^2, fasting glucose 4.9 (±0.6) mM, insulin, plasma lipids and blood pressure within normal range and no family history of diabetes. The muscle biopsies were obtained with informed consent and approval by the National Committee for Research Ethics (Oslo, Norway). The cells were cultured on 96-well CellBIND microplates DMEM-Glutamax (5.5 mM glucose), 2% fetal bovine serum, 2% Ultroser G, penicillin (100 units/mL), streptomycin (100 μg/mL) and amphotericin B (1.25 μg/mL) for proliferation. At 70%–80% confluence, the growth medium was replaced by DMEM-Glutamax (5.5 mM glucose) supplemented with 2% fetal bovine serum, penicillin (100 units/mL), streptomycin (100 μg/mL), amphotericin B (1.25 μg/mL) and insulin (25 pM), to induce differentiation. The cells were cultured in humidified 5% CO2 atmosphere at 37 °C, and the medium was changed every 2–3 days. Experiments were performed after 7 days of differentiation. 22-S-hydroxycholesterol (22-SHC) (10 µM) was used as positive control in the glucose uptake assay. The positive control used in the oleic acid assay is the synthetic liver X receptor (LXR) agonist T0901317 (10 µm).
(§2) Cells were exposed to test samples solved in 0.1% DMSO that were added directly to the medium for 2 days for myotubes and 24 h for HepG2 cells. Thereafter, cells were exposed to [^14C(U)]-glucose (1 μCi/mL, 100 μM) or [^14C]-oleic acid (37 kBq, 100 µM) for 4 h. A 96-well UniFilter-96 GF7B microplate (Perkin Elmer, Waltham, MA, USA) was mounted on top of the CellBIND plate (Corning Life-Sciences (Schiphol-Rijk, The Netherlands) and CO2 production was measured. After incubation the cells were washed twice with ice-cold phosphate buffered saline (PBS), lysed in 0.1 M NaOH, and radioactivity measured by liquid scintillation counting. The protein content of each sample was determined and glucose uptake was calculated using protein levels for standardization.

[4] = target: T3, xanthine oxidase from bovine milk (Bos taurus, UniProt P80457); test: Inhibition of xanthine oxidase; type: biochemical; settings: for IC50: phenolic compounds and metabolites, IC50 ± SD, read-out: XO IC50; for XO inhibition (in words): up to highest concentration tested (167 µM)
T3 construct: xanthine oxidase from bovine milk; purchased Sigma-Aldrich (St. Louis, MO, USA); host or cells: bovine milk
Experimental: The XO inhibitory activity with hypoxanthine as the substrate was carried out previously described. Test substances were dissolved in DMSO or water.

[5] = target: T4, Porcine pancreatic α-amylase (Sus scrofa, UniProt P00690); test: α-Amylase inhibitory activity; type: biochemical; settings: phenolic compounds and metabolites; IC50 ± SD
T4 construct: purchased Sigma-Aldrich Chemie GmbH
T4 sequence (P00690 16-511): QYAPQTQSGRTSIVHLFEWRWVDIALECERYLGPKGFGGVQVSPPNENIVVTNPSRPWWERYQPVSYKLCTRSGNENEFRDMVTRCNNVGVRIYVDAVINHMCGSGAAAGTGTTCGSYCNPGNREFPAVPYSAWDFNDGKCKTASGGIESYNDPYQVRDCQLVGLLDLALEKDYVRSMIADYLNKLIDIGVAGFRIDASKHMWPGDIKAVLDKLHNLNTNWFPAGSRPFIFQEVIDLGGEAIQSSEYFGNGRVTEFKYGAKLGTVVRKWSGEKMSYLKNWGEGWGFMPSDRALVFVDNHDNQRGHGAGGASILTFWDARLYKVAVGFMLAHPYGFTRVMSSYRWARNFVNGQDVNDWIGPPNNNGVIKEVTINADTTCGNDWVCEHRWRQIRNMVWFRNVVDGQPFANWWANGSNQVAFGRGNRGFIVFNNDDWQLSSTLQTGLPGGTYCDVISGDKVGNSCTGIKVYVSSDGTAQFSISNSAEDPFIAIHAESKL
Experimental: The α-amylase assay was performed as described by Gella, et al.. Porcine pancreatic α-amylase (EC 3.2.1.1) was purchased from Sigma-Aldrich Chemie GmbH.

[6] = tested on: human skeletal muscle cells; test: Oleic acid uptake in human myotubes ([14C]-oleic acid); type: cell-based; settings: for oleic acid uptake (in words): 10 µM; for increase in oleic acid uptake: 10 µM (highest concentration tested), 2 days, vs 0.1% DMSO control
Experimental: Figure 3 Effects of elderflower extracts, constituents and metabolites on oleic acid uptake in human myotubes. Myotubes were treated with (A) 12.5, 25 and 50 µg/mL of different crude extracts; (B,C) 0.1, 1 and 10 µM of elderflower phenolic compounds and metabolites for 2 days. Thereafter, the cells were exposed to [^14C]-oleic acid (37 kBq, 100 µM) for 4 h as described in Materials and Methods. A synthetic liver X receptor (LXR) agonist T0901317 (10 μM) was used as positive control. The figures show [^14C]-oleic acid uptake given as means ± SEM (n = 3) from separate experiments. * p < 0.05 vs. control (0.1% DMSO).
as §1, §2

[7] = 15-LO IC50, phenolic compounds and metabolites
[8] = α-Glucosidase IC50, phenolic compounds and metabolites
[9] = phenolic compounds and metabolites, read-out: 15-LO IC50
[10] = phenolic compounds and metabolites, read-out: α-Glucosidase IC50
[11] = 10 µM (highest concentration tested)

T3 sequence (P80457 whole entry): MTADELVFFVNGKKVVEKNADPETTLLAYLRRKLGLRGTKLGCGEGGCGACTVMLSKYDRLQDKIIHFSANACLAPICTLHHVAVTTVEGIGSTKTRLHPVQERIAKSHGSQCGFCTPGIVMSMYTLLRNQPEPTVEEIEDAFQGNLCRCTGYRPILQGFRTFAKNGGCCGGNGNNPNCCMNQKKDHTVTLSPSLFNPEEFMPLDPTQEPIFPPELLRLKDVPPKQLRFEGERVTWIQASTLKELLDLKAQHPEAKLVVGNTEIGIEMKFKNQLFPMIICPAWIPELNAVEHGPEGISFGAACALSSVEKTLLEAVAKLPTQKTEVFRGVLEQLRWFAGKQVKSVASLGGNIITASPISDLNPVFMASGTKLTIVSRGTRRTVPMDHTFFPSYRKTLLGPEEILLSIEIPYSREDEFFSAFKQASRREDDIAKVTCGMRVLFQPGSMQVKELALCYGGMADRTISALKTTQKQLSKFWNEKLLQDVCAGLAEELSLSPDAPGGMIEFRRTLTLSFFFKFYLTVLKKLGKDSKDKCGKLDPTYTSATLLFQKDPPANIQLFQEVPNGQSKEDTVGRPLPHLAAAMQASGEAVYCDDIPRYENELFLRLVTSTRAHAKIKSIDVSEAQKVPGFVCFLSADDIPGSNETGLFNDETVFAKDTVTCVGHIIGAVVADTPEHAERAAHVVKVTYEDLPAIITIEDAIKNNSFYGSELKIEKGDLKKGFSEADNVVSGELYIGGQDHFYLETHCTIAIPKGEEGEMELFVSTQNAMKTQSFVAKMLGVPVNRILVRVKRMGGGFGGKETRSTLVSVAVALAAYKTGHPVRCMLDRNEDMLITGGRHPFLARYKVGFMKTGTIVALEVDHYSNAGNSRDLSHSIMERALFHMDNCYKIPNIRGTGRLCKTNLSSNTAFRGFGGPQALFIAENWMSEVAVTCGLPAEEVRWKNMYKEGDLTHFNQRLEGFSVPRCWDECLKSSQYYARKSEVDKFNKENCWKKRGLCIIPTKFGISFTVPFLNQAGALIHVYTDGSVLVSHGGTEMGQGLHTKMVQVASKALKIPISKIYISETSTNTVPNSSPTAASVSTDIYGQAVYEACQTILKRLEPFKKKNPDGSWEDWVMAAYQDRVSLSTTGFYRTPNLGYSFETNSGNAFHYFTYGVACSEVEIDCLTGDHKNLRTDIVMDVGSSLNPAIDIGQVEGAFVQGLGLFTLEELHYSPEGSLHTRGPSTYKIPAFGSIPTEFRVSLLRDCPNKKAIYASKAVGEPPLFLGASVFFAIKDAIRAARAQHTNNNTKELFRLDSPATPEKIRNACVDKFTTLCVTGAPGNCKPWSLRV
T2 sequence (P53341 whole entry): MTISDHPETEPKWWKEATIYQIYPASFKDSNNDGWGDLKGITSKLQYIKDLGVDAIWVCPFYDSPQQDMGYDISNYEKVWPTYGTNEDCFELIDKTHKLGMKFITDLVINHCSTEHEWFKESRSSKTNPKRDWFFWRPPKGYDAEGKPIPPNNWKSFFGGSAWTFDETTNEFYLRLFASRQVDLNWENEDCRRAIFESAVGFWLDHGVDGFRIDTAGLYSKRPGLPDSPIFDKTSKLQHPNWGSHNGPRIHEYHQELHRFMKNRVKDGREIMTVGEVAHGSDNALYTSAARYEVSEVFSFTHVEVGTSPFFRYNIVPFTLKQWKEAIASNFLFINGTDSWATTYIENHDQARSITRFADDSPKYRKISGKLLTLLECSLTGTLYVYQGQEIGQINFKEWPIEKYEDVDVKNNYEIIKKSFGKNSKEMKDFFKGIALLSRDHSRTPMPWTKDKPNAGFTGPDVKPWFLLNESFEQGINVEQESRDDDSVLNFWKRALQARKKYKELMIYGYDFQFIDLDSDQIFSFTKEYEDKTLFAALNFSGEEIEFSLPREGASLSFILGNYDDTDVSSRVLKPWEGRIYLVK

Row | IC50 [4] [µM] | XO inhibition (in words) [4] | IC50 [1, 9] [µM] | IC50 [5] [µM] | IC50 [2, 10] [µM] | SMILES | IC50 (DPPH radical scavenging) [µM] | IC50 [1, 7] [µM] | IC50 [2, 8] [µM] | glucose uptake (in words) ([3]; 0.1 and 1 µM, compared to DMSO control) | oleic acid uptake (in words) [6] | glucose uptake (in words) [3, 11] | increase in glucose uptake [3] | increase in oleic acid uptake [6]
1 | > 167 | did not inhibit | 116 ± 7.9 | 9.7 ± 2.1 | 12.1 ± 2.3 | Oc1cc(O)c2c(c1)O[C@H](c1ccc(O)c(O)c1)[C@H](O)C2 [Epicatechin] | 15.6 ± 2.3 |  |  |  |  |  |  | 
2 | 26.2 ± 3.1 |  | 115 ± 5.8 | 15.4 ± 3.2 |  | O=C(C=Cc1ccc(O)c(O)c1)OC1CC(O)(C(=O)O)CC(O)C1O (centres unmarked) [Neochlorogenic acid] |  |  |  |  |  |  |  | 
3 | 125 ± 3.9 |  | 115 ± 6.2 | 26.2 ± 0.7 | 25.2 ± 2.9 | COc1cc(-c2oc3cc(O)cc(O)c3c(=O)c2OC2OC(COC3OC(C)C(O)C(O)C3O)C(O)C(O)C2O)ccc1O (centres unmarked) [Isorhamnetin-3-rutinoside] | 85 ± 2.1 |  |  |  |  |  | 10.0% ± 3.6% | 
4 | > 167 | inactive | 129 ± 5.2 | 94.8 ± 6.8 | 98.9 ± 3.5 | Cc1ccc(O)c(O)c1 [4-Methylcatechol] | 40.5 ± 3.6 |  |  |  | small but significant increase | small increase |  | 
5 | 95.1 ± 4.5 |  | 124 ± 3.5 | 6.2 ± 1.1 |  | O=C1C[C@@H](c2ccc(O)cc2)Oc2cc(O)cc(O)c21 [Naringenin] | 23.3 ± 1.4 |  |  |  |  |  |  | 
6 | > 167 | did not inhibit |  | 14.1 ± 0.8 | 18.5 ± 2.2 | Oc1cc(O)c2c(c1)O[C@H](c1ccc(O)c(O)c1)[C@@H](O)C2 [Catechin] | 19 ± 1.1 |  |  |  |  |  |  | 

Second part, the compound before the results:

Row | SMILES | IC50 [4] [µM] | XO inhibition (in words) [4] | IC50 [1, 9] [µM] | IC50 [5] [µM] | IC50 [2, 10] [µM] | IC50 (DPPH radical scavenging) [µM] | IC50 [1, 7] [µM] | IC50 [2, 8] [µM] | glucose uptake (in words) ([3]; 0.1 and 1 µM, compared to DMSO control) | oleic acid uptake (in words) [6] | glucose uptake (in words) [3, 11] | increase in glucose uptake [3] | increase in oleic acid uptake [6]
7 | O=C(O)c1ccccc1 [Benzoic acid] | > 167 | inactive |  |  |  | 145 ± 5.8 | 138 ± 6.5 | 129 ± 3.8 | inactive |  |  |  | 
8 | O=C(O)Cc1cccc(O)c1 [3-Hydroxyphenylacetic acid] | > 167 | inactive | 134 ± 5.8 | 44.8 ± 5.3 | 68.9 ± 3.8 | 125 ± 4.8 |  |  |  | small but significant increase | small increase |  | 
9 | COc1cc(-c2oc3cc(O)cc(O)c3c(=O)c2O)ccc1O [Isorhamnetin] |  |  |  |  |  | 63.3 ± 2.3 | 103 ± 2.4 | 8.1 ± 3.1 |  |  |  | 18.8% ± 4.3% | 
10 | CC1OC(OCC2OC(Oc3c(-c4ccc(O)cc4)oc4cc(O)cc(O)c4c3=O)C(O)C(O)C2O)C(O)C(O)C1O (centres unmarked) [Kaempferol-3-rutinoside] | 63.8 ± 2.1 |  | 109 ± 5.6 | 19.1 ± 0.5 |  | 30.6 ± 3.9 |  | 23.9 ± 1.1 |  |  |  | 29.7% ± 2.5% | 
11 | CC1OC(Oc2c(-c3ccc(O)c(O)c3)oc3cc(O)cc(O)c3c2=O)C(O)C(O)C1O (centres unmarked) [Quercetin-3-rhamnoside] | 105 ± 4.6 |  | 108 ± 4.6 | 3.5 ± 0.9 |  | 19.1 ± 2.1 |  | 3.9 ± 1.4 |  |  |  |  | 5.0% ± 6.0%
12 | C[C@@H]1O[C@@H](OC[C@H]2O[C@@H](Oc3c(-c4ccc(O)c(O)c4)oc4cc(O)cc(O)c4c3=O)[C@H](O)[C@@H](O)[C@@H]2O)[C@H](O)[C@H](O)[C@H]1O [Rutin, Quercetin-3-rutinoside] | 42.9 ± 2.9 |  | 99.3 ± 1.1 | 4.1 ± 0.8 |  | 22.5 ± 1.6 |  | 4.6 ± 2.3 |  |  |  |  | 
13 | O=C(O)Cc1ccc(O)c(O)c1 [3,4-Dihydroxyphenylacetic acid] | > 167 | inactive | 135 ± 7.3 | 74.9 ± 1.7 | 78.5 ± 1.6 | 116 ± 1.4 |  |  |  | small but significant increase | small increase |  | 
14 | O=c1c(OC2OC(CO)C(O)C(O)C2O)c(-c2ccc(O)c(O)c2)oc2cc(O)cc(O)c12 (centres unmarked) [Quercetin-3-glucoside] | 106 ± 5.3 |  |  | 3 ± 1.2 |  | 17.6 ± 3.2 |  | 4.1 ± 1.9 |  |  |  |  | 13.1% ± 3.5%
15 | O=C(O)/C=C/c1ccc(O)c(O)c1 [Caffeic acid] | 107 ± 3.2 |  |  |  |  | 90.3 ± 4.3 |  | 18.5 ± 0.9 |  |  |  |  | 
